Changes are numbered by the printed parent chain.
Tests used:
Assay in all cases: SIRT1 activation dose-response, OAcADPr assay with Ac-p53(W5) substrate
Type in all cases: biochemical
[1] = molecular target: T1, full-length hSIRT1 E230K (Homo sapiens, UniProt Q96EB6, E230K); conditions: for EC50: hSIRT1 E230K, activation dose-response, Ac-p53(W5) substrate
T1 construct: His6 (C); made in house
T1 sequence (Q96EB6 1-747 E230K): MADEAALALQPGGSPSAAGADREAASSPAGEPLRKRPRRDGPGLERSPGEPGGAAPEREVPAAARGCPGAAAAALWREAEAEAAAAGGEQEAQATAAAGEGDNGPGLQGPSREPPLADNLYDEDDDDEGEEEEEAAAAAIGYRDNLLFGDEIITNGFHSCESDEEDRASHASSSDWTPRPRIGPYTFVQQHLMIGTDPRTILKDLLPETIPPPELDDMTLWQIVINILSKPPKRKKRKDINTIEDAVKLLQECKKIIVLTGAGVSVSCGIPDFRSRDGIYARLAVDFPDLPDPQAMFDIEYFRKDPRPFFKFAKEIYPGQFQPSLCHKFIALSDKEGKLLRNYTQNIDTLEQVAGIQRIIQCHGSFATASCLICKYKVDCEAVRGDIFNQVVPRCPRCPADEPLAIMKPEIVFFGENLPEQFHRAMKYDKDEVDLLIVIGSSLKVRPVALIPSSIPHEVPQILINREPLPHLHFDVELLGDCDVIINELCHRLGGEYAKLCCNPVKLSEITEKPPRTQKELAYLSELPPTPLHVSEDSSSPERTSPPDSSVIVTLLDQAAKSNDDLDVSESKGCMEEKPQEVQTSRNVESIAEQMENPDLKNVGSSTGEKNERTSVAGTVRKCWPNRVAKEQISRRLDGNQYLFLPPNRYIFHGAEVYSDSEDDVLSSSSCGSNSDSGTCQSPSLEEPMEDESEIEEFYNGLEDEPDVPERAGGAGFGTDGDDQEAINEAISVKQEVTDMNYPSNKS
Protocol: (§1) SIRT1 activation and inhibition assays were run in reaction buffer with 0.05% BSA at 25° C. and analyzed using the OAcADPr assay. Enzyme and compound were pre-incubated for 20 minutes before addition of substrates. […] The dose-dependence of five compounds was tested and the fold-activation data were described by Eq. 1
(§2) [formula] where vx/v0 is the ratio of the reaction rate in the presence (vx) versus absence (v0) of activator (X), RVmax is the relative velocity at infinite activator concentration, EC50 is the concentration of activator required to produce one-half RVmax and b is the minimum value of vx/v0.

[2] = molecular target: T2, full-length hSIRT1 E230Q (Homo sapiens, UniProt Q96EB6, E230Q); conditions: for EC50: hSIRT1 E230Q, activation dose-response, Ac-p53(W5) substrate
T2 construct: His6 (C); made in house
T2 sequence (Q96EB6 1-747 E230Q): T1 sequence (Q96EB6 1-747 E230K) with K230Q
Protocol: as §1, §2

[3] = molecular target: T3, full-length hSIRT1 T219A (Homo sapiens, UniProt Q96EB6, T219A); conditions: for EC50: hSIRT1 T219A, activation dose-response, Ac-p53(W5) substrate
T3 construct: The following point mutants of full-length hSIRT1 were generated; His6 (C); made in house
T3 sequence (Q96EB6 1-747 T219A): T1 sequence (Q96EB6 1-747 E230K) with T219A, K230E
Protocol: as §1, §2

| SMILES | EC50 fold shift (mutant EC50/wild-type EC50) [1] | RVmax fold shift = (wild-type RVmax−1)/(mutant RVmax−1) [1] | EC50 [1] [µM] | EC50 fold shift (mutant EC50/wild-type EC50) [2] | RVmax fold shift = (wild-type RVmax−1)/(mutant RVmax−1) [2] | EC50 [2] [µM] | EC50 fold shift (mutant EC50/wild-type EC50) [3] | RVmax fold shift = (wild-type RVmax−1)/(mutant RVmax−1) [3] | EC50 [3] [µM] |
| --- | --- | --- | --- | --- | --- | --- | --- | --- | --- |
| O=C(Nc1ccccn1)N1c2nc(-c3cccc(C(F)(F)F)c3)ccc2N2CC[C@H]1C2 [Example 7] | 1.46 | 8.67 | 3.21 | 1.53 | 3.93 | 3.36 | 4.01 | 2.73 | 8.83 |
| Cc1cnc2c(NC(=O)N3c4nc(-c5cccc(C(F)(F)F)c5)ccc4N4CC[C@H]3C4)cccc2n1 [Example 8] | 1.46 | 5.36 | 0.7 | 1.21 | 3.07 | 0.58 | 8.26 | 1.64 | 3.96 |

Source: US9765075B2, “Substituted bridged urea analogs as sirtuin modulators” (GLAXOSMITHKLINE LLC, priority 2013, dated 2017)
